# Laboratory results as given in ChEMBL document CHEMBL1201862, “PubChem BioAssay data set” (2004).
#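 48-hour exposure; five concentrations; linearly interpolated endpoints. GI50 = concentration required for 50% inhibition of growth.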 Active and inactive are the calls of the source. Rule as the data show it: active = GI50 up to about 1.1 µM and inactive = higher.
# Assays:
# Assay in all cases: DTP human tumour cell line panel, 48 h
# [1] = system: MOLT-4
# [2] = system: SR
# [3] = system: OVCAR-4
# [4] = system: HOP-62
# [5] = system: UO-31
# [6] = system: SNB-75
# [7] = system: MDA-N
# [8] = system: DLD-1
# [9] = system: NCI-H522
# [10] = system: HL-60
# [11] = system: SF-295
# [12] = system: RPMI-8226
# [13] = system: Hs-578T
# [14] = system: PC-3
# [15] = system: A498
# [16] = system: MDA-MB-231
# [17] = system: HCT-15
# [18] = system: HCT-116
# [19] = system: RXF 393
# [20] = system: NCI/ADR-RES
SMILES,GI50 [1],GI50 [2],GI50 [3],GI50 [4],GI50 [5],GI50 [6],GI50 [7],GI50 [8],GI50 [9],GI50 [10],GI50 [11],GI50 [12],GI50 [13],GI50 [14],GI50 [15],GI50 [16],GI50 [17],GI50 [18],GI50 [19],GI50 [20]
CCc1cccc(CC)c1NC(=O)C(C#N)C1=C(Cl)C(=O)c2ccccc2C1=O (configuration not stated),1.53 µM (inactive),1.2 µM (inactive),16.6 µM (inactive),14.5 µM (inactive),11.8 µM (inactive),5.18 µM (inactive),16.7 µM (inactive),17.4 µM (inactive),8.55 µM (inactive),1.3 µM (inactive),15.7 µM (inactive),4.56 µM (inactive),< 0.01 µM (active),13 µM (inactive),19 µM (inactive),5.55 µM (inactive),20.6 µM,15.9 µM (inactive),16.3 µM (inactive),–
CC1(C)C(=O)/C=C\C(=O)C(C)(C)C(=O)/C=C\C(=O)C(C)(C)C(=O)/C=C\C(=O)C(C)(C)C(=O)/C=C\C1=O,3.53 µM (inactive),3.94 µM (inactive),30.3 µM (inactive),> 100 µM (inactive),34.8 µM (inactive),> 60 µM (inactive),41.8 µM (inactive),14.9 µM (inactive),8.41 µM (inactive),3 µM (inactive),23.6 µM (inactive),4.97 µM (inactive),> 100 µM (inactive),> 100 µM (inactive),> 68.5 µM (inactive),26.2 µM (inactive),20.4 µM,15.7 µM (inactive),17.9 µM (inactive),–
CC(C)NC(=O)CCN(C(=O)O)S(=O)(=O)c1ccc(NC(=O)c2ccccc2)cc1,> 41.2 µM (inactive),> 52.8 µM (inactive),> 100 µM (inactive),> 100 µM (inactive),> 100 µM (inactive),> 100 µM (inactive),–,> 41.6 µM (inactive),> 100 µM (inactive),> 48.8 µM (inactive),> 100 µM (inactive),34.8 µM (inactive),–,–,> 100 µM (inactive),–,> 42.2 µM,> 39.7 µM (inactive),> 100 µM (inactive),–
CN(C)CC1CCC(=C2CCCC2)C1=O (configuration not stated),2.76 µM (inactive),4.47 µM (inactive),16.7 µM (inactive),14.3 µM (inactive),18.3 µM (inactive),16.2 µM (inactive),–,2.82 µM (inactive),1.71 µM (inactive),3.51 µM (inactive),> 100 µM (inactive),0.859 µM (active),–,–,18.7 µM (inactive),–,5.65 µM,13.6 µM (inactive),10.5 µM (inactive),–
CCCC(O)[C@@]1(CC)CC(C)C(O)(C2(C)C[C@H](C)[C@@H](C(CC)C(=O)C(C)[C@@H](O)[C@H](C)C3OC(O)(C(CC)C(=O)O)[C@@H](C)C(O)C3CC)O2)O1 (some centres not stated),0.449 µM (active),< 0.01 µM (active),0.594 µM (active),0.369 µM (active),1.01 µM (active),0.0611 µM (active),0.414 µM (active),0.841 µM (active),0.0211 µM (active),0.0228 µM (active),0.753 µM (active),0.0989 µM (active),0.267 µM (active),0.0723 µM (active),0.412 µM (active),0.492 µM (active),1.16 µM,0.187 µM (active),0.0863 µM (active),0.0792 µM (active)
CCN(CC)CCCC(C)Nc1c2ccc(Cl)cc2nc2ccc(OC)cc12 (configuration not stated),0.518 µM (active),0.895 µM (active),1.65 µM (inactive),2.22 µM (inactive),2.08 µM (inactive),1.47 µM (inactive),1.78 µM (inactive),1.64 µM (inactive),1.35 µM (inactive),2.03 µM (inactive),0.729 µM (active),2.05 µM (inactive),3.37 µM (inactive),1.78 µM (inactive),2.48 µM (inactive),10.1 µM (inactive),2.29 µM,0.61 µM (active),1.2 µM (inactive),1.86 µM (inactive)
Cc1ccc2ccc3ccc(C)nc3c2n1 [NEOCUPROINE],1.34 µM (inactive),0.728 µM (active),–,4.68 µM (inactive),> 76.2 µM (inactive),> 52 µM (inactive),> 100 µM (inactive),0.656 µM (active),74.3 µM (inactive),0.353 µM (active),5.65 µM (inactive),> 100 µM (inactive),> 100 µM (inactive),2.1 µM (inactive),> 40.1 µM (inactive),5.62 µM (inactive),> 71.6 µM,0.349 µM (active),> 42 µM (inactive),> 100 µM (inactive)
